Reference: patent US8809342B2, “Glucagon receptor modulators” (Pfizer Inc., priority 2010, dated 2014)

Target: T1, human glucagon receptor (Homo sapiens, UniProt P47871)
T1 construct: expressed in transfected cells; host or cells: CHO-K1 cells, stably transfected
Assay: Glucagon cAMP assay (Cisbio cAMP detection); note: 100 pM glucagon challenge
Type: cell-based

T1 sequence (P47871 26-477): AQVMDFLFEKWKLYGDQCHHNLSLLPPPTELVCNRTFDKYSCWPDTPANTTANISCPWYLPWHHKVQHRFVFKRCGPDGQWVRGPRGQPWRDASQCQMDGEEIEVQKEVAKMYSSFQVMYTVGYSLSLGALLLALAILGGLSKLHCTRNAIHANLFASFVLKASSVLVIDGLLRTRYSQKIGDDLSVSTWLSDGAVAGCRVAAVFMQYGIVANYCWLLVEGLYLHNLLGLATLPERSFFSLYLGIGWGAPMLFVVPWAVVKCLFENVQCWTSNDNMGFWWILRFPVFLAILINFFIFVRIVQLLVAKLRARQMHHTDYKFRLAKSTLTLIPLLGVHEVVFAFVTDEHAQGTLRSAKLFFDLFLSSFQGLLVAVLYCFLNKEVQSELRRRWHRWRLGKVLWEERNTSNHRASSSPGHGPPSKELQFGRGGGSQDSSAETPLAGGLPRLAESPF

SMILES: CC(C)CC(Nc1cnc(C(=O)NCCC(=O)O)cn1)c1ccc(-c2ccc(C(F)(F)F)cc2)cc1 (single isomer, unassigned; isomer 2) [Example 1.18, 3-(5-(3-methyl-1-(4′-(trifluoromethyl)biphenyl-4-yl)butylamino)pyrazine-2-carboxamido)propanoic acid, Isomer 2]
- Kb: 120 nM

SMILES: CC(C)CC(Nc1ccc(-c2ccc(C(F)(F)F)cc2)cc1)c1ccc(C(=O)NCCC(=O)O)cn1 (single isomer, unassigned; isomer 2) [Example 2.6, 3-(6-(3-methyl-1-(4′-(trifluoromethyl)biphenyl-4-ylamino)butyl)nicotinamido)propanoic acid, Isomer 2]
- Kb: 500 nM

SMILES: CCCC(Nc1cnc(-c2ccc(C(F)(F)F)cc2)nc1)c1ccc(C(=O)NCCC(=O)O)cc1 (single isomer, unassigned; isomer 2) [Example 2.17, 3-(4-(1-(2-(4-(trifluoromethyl)phenyl)pyrimidin-5-ylamino)butyl)benzamido)propanoic acid, Isomer 2]
- Kb: 420 nM

SMILES: CC(C)C[C@@H](Nc1ccc(C(=O)NCCC(=O)O)cn1)c1ccc(-c2ccc(C(F)(F)F)cc2)nc1 (single isomer, unassigned; isomer 2) [Example 4.21, 3-(6-(3-methyl-1-(6-(4-(trifluoromethyl)phenyl)pyridin-3-yl)butylamino)nicotinamido) propanoic acid, Isomer 2]
- Kb: 980 nM

SMILES: CC(C)C[C@@H](Nc1ccc(C(=O)NCCC(=O)O)cn1)c1ccc(-c2ccc(C(F)(F)F)cc2)cc1 [Example 1.1, (R)-3-(6-(3-methyl-1-(4′-(trifluoromethyl)biphenyl-4-yl)butylamino)nicotinamido)propanoic acid]
- Kb: 1700 nM

SMILES: CC(C)C[C@H](Nc1ccc(C(=O)NCCC(=O)O)cn1)c1ccc(-c2ccc(C(F)(F)F)cc2)cc1 [Example 1.3, (−)-(S)-3-(6-(3-methyl-1-(4′-(trifluoromethyl)biphenyl-4-yl)butylamino)nicotinamido)propanoic acid]
- Kb: 73 nM

SMILES: CC(C)C[C@H](Nc1ccc(C(=O)NCCC(=O)O)cn1)c1ccc(-c2ccc(C(F)(F)F)cn2)cc1 [Example 4.1, (S)—N-({6-[(3-methyl-1-{4-[5-(trifluoromethyl)pyridin-2-yl]phenyl}butyl)amino]pyridin-3-yl}carbonyl)-beta-alanine]
- Kb: 67 nM

SMILES: CCC[C@H](Nc1cnc(-c2ccc(C(F)(F)F)cc2)cn1)c1ccc(C(=O)NCCC(=O)O)cc1 [Example 4.4, (S)-3-(4-(1-((5-(4-(trifluoromethyl)phenyl)pyrazin-2-yl)amino)butyl)benzamido)propanoic acid]
- Kb: 66 nM

SMILES: CCC[C@@H](Nc1cnc(-c2ccc(C(F)(F)F)cc2)cn1)c1ccc(C(=O)NCCC(=O)O)cc1 [Example 4.5, (R)-3-(4-(1-((5-(4-(trifluoromethyl)phenyl)pyrazin-2-yl)amino)butyl)benzamido)propanoic acid]
- Kb: 820 nM

SMILES: O=C(O)CCNC(=O)c1ccc(NC(CC2CC2)c2ccc(-c3ccc(C(F)(F)F)cc3)cc2)nc1 (stereo not drawn) [Example 4.14, 3-(6-(2-cyclopropyl-1-(4′-(trifluoromethyl)biphenyl-4-yl)ethylamino)nicotinamido)propanoic acid]
- Kb: 110 nM

SMILES: Cc1cc(C(CC(C)C)Nc2ccc(C(=O)NCCC(=O)O)cn2)cnc1-c1ccc(C(F)(F)F)cc1 (stereo not drawn) [Example 4.15, 3-(6-(3-methyl-1-(5-methyl-6-(4-(trifluoromethyl)phenyl)pyridin-3-yl)butylamino)nicotinamido)propanoic acid]
- Kb: 370 nM

SMILES: CCCC(Nc1ncc(C(=O)NCCC(=O)O)cn1)c1ccc(-c2ccc(C(F)(F)F)cc2)cc1 (stereo not drawn) [Example 4.17, 3-(2-(1-(4′-(trifluoromethyl)biphenyl-4-yl)butylamino)pyrimidine-5-carboxamido)propanoic acid]
- Kb: 340 nM

SMILES: CCCC(Nc1ccc(-c2ccc(C(F)(F)F)cc2)nc1)c1ccc(C(=O)NCCC(=O)O)cc1 (stereo not drawn) [Example 4.18, 3-(4-(1-(6-(4-(trifluoromethyl)phenyl)pyridin-3-ylamino)butyl)benzamido)propanoic acid]
- Kb: 60 nM

SMILES: CCCC(Nc1ccc(C(=O)NCCC(=O)O)cn1)c1ccc(-c2ccc(C(F)(F)F)cc2)c(OC)c1 (stereo not drawn) [Example 4.23, 3-(6-(1-(2-methoxy-4′-(trifluoromethyl)biphenyl-4-yl)butylamino)nicotinamido)propanoic acid]
- Kb: 75 nM

SMILES: CCCC(Nc1ccc(C(=O)NCCC(=O)O)cn1)c1ccc(-c2ccc(C(F)(F)F)cc2)cc1OC (stereo not drawn) [Example 4.24, 3-(6-(1-(3-methoxy-4′-(trifluoromethyl)biphenyl-4-yl)butylamino)nicotinamido)propanoic acid]
- Kb: 88 nM

SMILES: CCCC(Nc1ccc(C(=O)NCCC(=O)O)cn1)c1cnc(-c2ccc(OC(F)(F)F)cc2)nc1 (stereo not drawn) [Example 4.25, 3-(6-(1-(2-(4-(trifluoromethoxy)phenyl)pyrimidin-5-yl)butylamino)nicotinamido)propanoic acid]
- Kb: 94 nM

SMILES: O=C(O)CCNC(=O)c1ccc(NC(c2cnc(-c3ccc(C(F)(F)F)cc3)nc2)C2CCCC2)nc1 (stereo not drawn) [Example 4.28, 3-(6-(cyclopentyl(2-(4-(trifluoromethyl)phenyl)pyrimidin-5-yl)methylamino)nicotinamido)propanoic acid]
- Kb: 56 nM

SMILES: CC(C)CC(Nc1cnc(-c2ccc(C(F)(F)F)cc2)nc1)c1ccc(C(=O)NCCC(=O)O)cc1 (stereo not drawn) [Example 4.31, 3-(4-(3-methyl-1-(2-(4-(trifluoromethyl)phenyl)pyrimidin-5-ylamino)butyl)benzamido)propanoic acid]
- Kb: 55 nM

SMILES: CC(C)CC(Nc1cnc(-c2ccc(C(F)(F)F)cc2)nc1)c1ccc(C(=O)NCCC(=O)O)nc1 (stereo not drawn) [Example 4.32]
- Kb: 2700 nM

SMILES: COC1CC(C(Nc2ccc(C(=O)NCCC(=O)O)cn2)c2ccc(-c3ccc(C(F)(F)F)cc3)cc2)C1 (stereo not drawn) [Example 4.33, 3-(6-((3-methoxycyclobutyl)(4′-(trifluoromethyl)biphenyl-4-yl)methylamino)nicotinamido)propanoic acid]
- Kb: 280 nM

SMILES: O=C(O)CCNC(=O)c1ccc(NC(c2ccc(-c3ccc(C(F)(F)F)cc3)cc2)C2CCCOC2)nc1 (stereo not drawn) [Example 4.34, 3-(6-((tetrahydro-2H-pyran-3-yl)(4′-(trifluoromethyl)biphenyl-4-yl)methylamino)nicotinamido)propanoic acid]
- Kb: 120 nM
